Test: Comparison of stability (water content over time) of brexpiprazole solid forms at 25° C. and 60% ambient humidity
Assay type: physicochemical
Experimental: The comparation of the stability of brexpiprazole in the crystal form I, the dihydrated crystal form, the anhydrous crystal form and the amorphous form is shown in Table 1. The test in Table 1 was carried out at 25° C. and 60% ambient humidity.

Row | Compound | Water Content (after 1 month) [wt. %] | Water Content (after 2 months) [wt. %] | Water Content (after 3 months) [wt. %] | Water Content (initial) [wt. %] | Water Content (after 1 month) (dihydrate) [wt. %] | Water Content (after 2 months) (dihydrate) [wt. %] | Water Content (after 3 months) (dihydrate) [wt. %] | Water Content (initial) (dihydrate) [wt. %]
1 | O=c1ccc2ccc(OCCCCN3CCN(c4cccc5sccc45)CC3)cc2[nH]1 [Amorphous form, 7-{4-[4-(1-benzothiophen-4-yl)piperazin-1-yl]butoxy}-1H-quinolin-2-one] | 0.13 | 0.22 | 0.40 | 0.02 | – | – | – | –
2 | O=c1ccc2ccc(OCCCCN3CCN(c4cccc5sccc45)CC3)cc2[nH]1 [Anhydrous crystal form, 7-[4-(4-benzo[b]thiophen-4-yl-piperazin-1-yl)butoxy]-1H-quinolin-2-one] | 0.09 | 0.21 | 0.30 | 0.02 | – | – | – | –
3 | O=c1ccc2ccc(OCCCCN3CCN(c4cccc5sccc45)CC3)cc2[nH]1 [Crystal form I, 7-{4-[4-(1-benzothiophen-4-yl)piperazin-1-yl]butoxy}-1H-quinolin-2-one] | 1.27 | 1.26 | 1.27 | 1.24 | – | – | – | –
4 | O=c1ccc2ccc(OCCCCN3CCN(c4cccc5sccc45)CC3)cc2[nH]1 [Dihydrated crystal form, 7-[4-(4-benzo[b]thiophen-4-yl-piperazin-1-yl)butoxy]-1H-quinolin-2-one dihydrate] | – | – | – | – | 6.90 | 7.10 | 7.50 | 6.74
